Where two headings read alike, the source gives them in different places.
Assays:
[1] = Cytotoxicity, neutral red uptake, 3T3; assay type: cell-based, murine; settings: mouse
Method: (§1) A549 human non-small cell lung cancer cell line, HepG2 hepatocarcinoma cells, and BALB/c 3T3 clone A31 murine fibroblast cell line for the study were obtained from ATCC (American Type Culture Collection, Manassas, VA, USA). Cells were propagated in DMEM medium (Sigma, D6046, Irvin, UK) supplemented with 1% penicillin (100 U/mL)–streptomycin (100 μg/mL) and 10% foetal bovine serum (Sigma, F7524, St Louis, MO, USA) in case of A549 and HepG2 or 10% calf serum (Sigma, C8056, St Louis, MO, USA) in case of BALB/c 3T3. All cultivations were performed in a humidified 5% CO2 atmosphere at 37 °C.
(§2) The cytotoxicity of the compounds was tested in A549, HepG2, and BALB/c3T3 cell lines by neutral red (NR) uptake assay. A549 and BALB/c3T3 cells were seeded in 96-well plates at a density of 8 × 10^3 cells per well, HepG2 at density 1.2 × 10^4 cells per well. After 24 h incubation, test compounds in a concentration range of 0.8 to 200 μM were added. Cultivation in the presence of test compounds was done for 48 h. Afterwards, the plates were washed with phosphate-buffered saline (PBS) (Sigma, D8537, Irvin, UK), and 25 µg/mL NR solution (Sigma, N2889, Irvin, UK) was added. In case of BALB/c 3T3 cells, NR was diluted in 5% foetal calf serum containing media, while for A549 and HepG2 cells, it was diluted in 5% foetal bovine serum containing media. After 3 h incubation, the plate was washed with PBS, and the NR taken up by viable cells was extracted using desorbing fixative (50% ethanol/1% acetic acid/49% water). Absorbance at 540 nm was measured using a Tecan M200 Infinite Pro microplate reader. Cytotoxicity was expressed as a concentration-dependent reduction of the uptake of NR, compared to the untreated controls, and the IC50 value for each compound was calculated.

A549 cell culture = test: Cell permeability testing (LC/MS/MS of cell lysates and media); assay type: in vitro ADME, human; settings: for Cell Permeability, 2 × 10^4 Cells/L / Cell Permeability, 4 × 10^4 Cells/L: 24 h; for cell permeability (in words): A549
Method: To test cell permeability, each compound was added to A549 cell culture at a concentration of 20 μM and incubated for 24 h. Cells were seeded in 6-well plates at a density of 2 × 10^4 and 4 × 10^4 cells per well at concentrations 1 × 10^4 and 2 × 10^4 cells/mL media for the testing of each compound, each in three replicates. After the incubation, the cell cultivation media and cell lysates were collected. After the removal of media, cells were washed with ice-cold PBS (Sigma, D1408, Irvin, UK) and lysed for 30 min in 500 µL per well ice-cold RIPA buffer (Sigma, R0278, St Louis, MO, USA). Samples were stored at −80 °C until analysis.
The quantitative determination of tested compounds in cell lysates and culture media was performed on a Waters MICROMASS QUATTRO microTM tandem mass spectrometer combined with Acquity UPLC system. Acquity UPLC BEH C8 (2.1 × 50 mm × 1.7 μm) column was used at a flow rate of 0.25 mL/min. The column oven was set at 30 °C, and the sample injection volume was 5 μL. The mobile phase consisted of a combination of A (0.1% formic acid in water) and B (acetonitrile). The gradient elution program from 5% B to 98% B in 5 min was applied for analysis. Tandem mass spectrometer in positive electrospray mode was used for quantification. The TargetLynx software was applied to process LC/MS/MS data. Samples for LC/MS/MS analysis were prepared as follows: 200 μL of acetonitrile/methanol mixture (3:1 v/v) was add to 200 μL of each cell lysate and culture media sample. Then, the samples were centrifuged (10,000 rpm, 10 min), and the supernatants (300 μL) were removed from each sample and placed in vials for LC/MS/MS analysis. Calibration curves for all analytes were produced by analysis of standard solutions over a concentration range of 0.2 to 20 μM.

[2] = Cytotoxicity, neutral red uptake, A549; assay type: cell-based; settings: human
Method: as §1, §2

[3] = Cytotoxicity, neutral red uptake, HepG2; assay type: cell-based; settings: human
Method: as §1, §2

[4] = target: T1, human Glycine N-Methyltransferase (GNMT) (Homo sapiens, UniProt Q14749); test: HTRF methyltransferase selectivity assay, human GNMT; assay type: biochemical; settings: for Ligand Efficiency (LE) Human (hMtase): estimated from IC50 values; for inhibition at 100 µM: read-out: Percent inhibition at 100 μM, Human
T1 construct: purchased MyBioSource MBS636160
T1 sequence (Q14749 1-295): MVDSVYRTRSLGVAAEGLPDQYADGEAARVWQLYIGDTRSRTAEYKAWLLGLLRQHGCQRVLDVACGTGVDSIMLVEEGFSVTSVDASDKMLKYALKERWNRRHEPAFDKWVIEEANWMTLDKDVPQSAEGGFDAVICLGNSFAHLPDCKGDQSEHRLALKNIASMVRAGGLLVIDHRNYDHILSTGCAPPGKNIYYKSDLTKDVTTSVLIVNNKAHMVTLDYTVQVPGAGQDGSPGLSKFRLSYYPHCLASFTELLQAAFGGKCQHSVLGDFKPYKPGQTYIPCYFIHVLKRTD

SARS-CoV-2 nsp16/nsp10 = SARS-CoV-2 nsp16/nsp10 (Severe acute respiratory syndrome coronavirus 2, UniProt P0DTD1); test: biochemical; settings: for Ligand Efficiency (LE) nsp16: estimated from IC50 values; for inhibition at 100 µM: read-out: Percent inhibition at 100 μM, nsp16
SARS-CoV-2 nsp14 = SARS-CoV-2 nsp14 (Severe acute respiratory syndrome coronavirus 2, UniProt P0DTD1); test: biochemical; settings: for Ligand Efficiency (LE) nsp14: estimated from IC50 values; for inhibition at 100 µM: read-out: Percent inhibition at 100 μM, nsp14
[5] = test system: 3T3, A549, and HepG2 cell lines; test: Cytotoxicity, summary statements over the three cell lines; assay type: cell-based; settings: 3T3, A549, HepG2
Method: as §2

[6] = 48 h, neutral red uptake, read-out: Cytotoxicity (CC50) 3T3
[7] = A549, compound 20 μM, LOQ 0.2 μM or 1%
[8] = 48 h, neutral red uptake, read-out: Cytotoxicity (CC50) A549
[9] = 48 h, neutral red uptake, read-out: Cytotoxicity (CC50) HepG2
[10] = HTRF, SAM 10 µM, glycine 5 mM, read-out: IC50 Human (hMtase, human glycine N-methyltransferase)
[11] = HTRF, nsp16/nsp10, SAM 10 µM, m7GpppA-RNA, read-out: IC50 nsp16
[12] = HTRF, SAM 10 µM, GpppG 4 µM, read-out: IC50 nsp14

SMILES: Nc1ncnc2c1ncn2[C@@H]1O[C@H](C[C@@H](N)CC[C@H](N)C(=O)O)[C@@H](O)[C@H]1O [Sinefungin, reference compound]
- CC50 at 48 h [1, 6]: 99.2 µM
- Cell Permeability, 2 × 10^4 Cells/L (A549 cell culture; [7]): <LOD
- Cell Permeability, 4 × 10^4 Cells/L (A549 cell culture; [7]): <LOD
- CC50 at 48 h [2, 8]: 72.9 µM
- CC50 at 48 h [3, 9]: > 100 µM

SMILES: Cc1ccc(S(=O)(=O)OC[C@H]2O[C@@H](n3cnc4c(N)ncnc43)[C@H](O)[C@@H]2O)cc1 [ZINC3861767]
- IC50 [4, 10]: 2.8 µM
- Ligand Efficiency (LE) Human (hMtase) [4]: 0.26 kcal/mol
- IC50 (SARS-CoV-2 nsp16/nsp10; [11]): 1.14 µM
- Ligand Efficiency (LE) nsp16 (SARS-CoV-2 nsp16/nsp10): 0.28 kcal/mol
- IC50 (SARS-CoV-2 nsp14; [12]): 1.5 µM
- Ligand Efficiency (LE) nsp14 (SARS-CoV-2 nsp14): 0.27 kcal/mol
- CC50 at 48 h [1]: > 200 µM
- Cell Permeability, 2 × 10^4 Cells/L (A549 cell culture; human, 20 μM): 2.2%
- Cell Permeability, 4 × 10^4 Cells/L (A549 cell culture; human, 20 μM): 0.5%
- CC50 at 48 h [2]: > 200 µM
- CC50 at 48 h [3]: > 200 µM

SMILES: CSC[C@H]1O[C@@H](n2cnc3c(N)ncnc32)[C@H](O)[C@@H]1O [ZINC4228245]
- IC50 [4, 10]: 1.8 µM
- Ligand Efficiency (LE) Human (hMtase) [4]: 0.39 kcal/mol
- IC50 (SARS-CoV-2 nsp16/nsp10): 1.02 µM
- Ligand Efficiency (LE) nsp16 (SARS-CoV-2 nsp16/nsp10): 0.41 kcal/mol
- IC50 (SARS-CoV-2 nsp14; [12]): 1.4 µM
- Ligand Efficiency (LE) nsp14 (SARS-CoV-2 nsp14): 0.40 kcal/mol
- CC50 at 48 h [1]: > 200 µM
- Cell Permeability, 2 × 10^4 Cells/L (A549 cell culture; human, 20 μM): 0.7%
- Cell Permeability, 4 × 10^4 Cells/L (A549 cell culture; human, 20 μM): 0.8%
- CC50 at 48 h [2]: > 200 µM
- CC50 at 48 h [3]: > 200 µM

SMILES: O=C(CCCn1cncn1)N1CCCC(c2nc3ccccc3s2)C1 (stereo not shown) [ZINC23398144]
- IC50 [4]: 315 ± 5 µM
- Ligand Efficiency (LE) Human (hMtase) [4]: 0.20 kcal/mol
- inhibition at 100 µM [4]: 21 ± 2%
- IC50 (SARS-CoV-2 nsp16/nsp10): 197 ± 9 µM
- Ligand Efficiency (LE) nsp16 (SARS-CoV-2 nsp16/nsp10): 0.21 kcal/mol
- inhibition at 100 µM (SARS-CoV-2 nsp16/nsp10): 39 ± 7%
- IC50 (SARS-CoV-2 nsp14): 77 ± 3 µM
- Ligand Efficiency (LE) nsp14 (SARS-CoV-2 nsp14): 0.23 kcal/mol
- inhibition at 100 µM (SARS-CoV-2 nsp14): 57 ± 8%
- CC50 at 48 h [1, 6]: > 100 µM
- cell permeability (in words) (A549 cell culture): low level of cell permeability
- Cell Permeability, 2 × 10^4 Cells/L (A549 cell culture; [7]): 0.7%
- Cell Permeability, 4 × 10^4 Cells/L (A549 cell culture; [7]): 0.6%
- cytotoxicity (in words) [5]: no measurable cytotoxicity
- CC50 at 48 h [2, 8]: > 100 µM
- CC50 at 48 h [3, 9]: > 100 µM

SMILES: O=C(Cn1c(=O)[nH]c2c(-c3ccccc3)c[nH]c2c1=O)NCc1cccnc1 [ZINC33037945]
- IC50 [4]: 125 ± 6 µM
- Ligand Efficiency (LE) Human (hMtase) [4]: 0.19 kcal/mol
- inhibition at 100 µM [4]: 53 ± 8%
- IC50 nsp16 (SARS-CoV-2 nsp16/nsp10; HTRF, nsp16/nsp10, SAM 10 µM, m7GpppA-RNA): inactive
- inhibition at 100 µM (SARS-CoV-2 nsp16/nsp10): -8 ± 6%
- IC50 (SARS-CoV-2 nsp14): 106 ± 5 µM
- Ligand Efficiency (LE) nsp14 (SARS-CoV-2 nsp14): 0.19 kcal/mol
- inhibition at 100 µM (SARS-CoV-2 nsp14): 56 ± 5%
- CC50 at 48 h [1, 6]: > 100 µM
- cell permeability (in words) (A549 cell culture): good cell permeability
- Cell Permeability, 2 × 10^4 Cells/L (A549 cell culture; [7]): 17.9%
- Cell Permeability, 4 × 10^4 Cells/L (A549 cell culture; [7]): 30.8%
- cytotoxicity (in words) [5]: no measurable cytotoxicity
- CC50 at 48 h [2, 8]: > 100 µM
- CC50 at 48 h [3, 9]: > 100 µM

SMILES: O=C(Cc1csc(SCC(=O)c2ccccc2)n1)Nc1cccc2nsnc12 [ZINC38661771]
- IC50 [4]: 58 ± 3 µM
- Ligand Efficiency (LE) Human (hMtase) [4]: 0.21 kcal/mol
- inhibition at 100 µM [4]: 63 ± 5%
- IC50 (SARS-CoV-2 nsp16/nsp10): 51 ± 2 µM
- Ligand Efficiency (LE) nsp16 (SARS-CoV-2 nsp16/nsp10): 0.21 kcal/mol
- inhibition at 100 µM (SARS-CoV-2 nsp16/nsp10): 69 ± 8%
- IC50 (SARS-CoV-2 nsp14): 118 ± 4 µM
- Ligand Efficiency (LE) nsp14 (SARS-CoV-2 nsp14): 0.19 kcal/mol
- inhibition at 100 µM (SARS-CoV-2 nsp14): 58 ± 7%
- CC50 at 48 h [1, 6]: 116 µM
- cell permeability (in words) (A549 cell culture): low level of cell permeability
- Cell Permeability, 2 × 10^4 Cells/L (A549 cell culture; [7]): <LOQ
- Cell Permeability, 4 × 10^4 Cells/L (A549 cell culture; [7]): <LOQ
- concentration at which cytotoxicity was shown [5]: ≈ 100 μM
- CC50 at 48 h [2, 8]: 97 µM
- CC50 at 48 h [3, 9]: 93.8 µM

SMILES: CCNC(=O)NCCSC[C@H]1O[C@@H](n2cnc3c(N)ncnc32)[C@H](O)[C@@H]1O [ZINC473112262]
- IC50 [4, 10]: 5.8 µM
- Ligand Efficiency (LE) Human (hMtase) [4]: 0.26 kcal/mol
- IC50 (SARS-CoV-2 nsp16/nsp10; [11]): 2.46 µM
- Ligand Efficiency (LE) nsp16 (SARS-CoV-2 nsp16/nsp10): 0.28 kcal/mol
- IC50 (SARS-CoV-2 nsp14; [12]): 3.1 µM
- Ligand Efficiency (LE) nsp14 (SARS-CoV-2 nsp14): 0.28 kcal/mol
- CC50 at 48 h [1]: > 100 µM
- Cell Permeability, 2 × 10^4 Cells/L (A549 cell culture; human, 20 μM): 0.3%
- Cell Permeability, 4 × 10^4 Cells/L (A549 cell culture; human, 20 μM): 0.3%
- CC50 at 48 h [2]: > 100 µM
- CC50 at 48 h [3]: > 100 µM
